Experimental data taken from PubChem BioAssay (NCI).
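96-well plates; 48 h exposure; 5 concentrations. Endpoints by linear interpolation between flanking doses. Not reached: highest tested concentration assigned. Abbreviation: GI50, concentration required for 50% inhibition of growth. Definition used: TGI = concentration required for complete inhibition of growth.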

Key:
Assay in all cases: DTP human tumour cell line panel, 48 h
[1] = tested on: NCI-H460 lung
[2] = tested on: SK-MEL-2 melanoma
[3] = tested on: HS 578T breast
[4] = tested on: SF-539 CNS
[5] = tested on: SK-OV-3 ovarian
[6] = tested on: DU-145 prostate
[7] = tested on: UO-31 renal
[8] = tested on: SF-268 CNS
[9] = tested on: SK-MEL-28 melanoma
[10] = tested on: NCI-H522 lung

Row | SMILES | GI50 [1] [µM] | TGI [1] [µM] | GI50 [2] [µM] | TGI [2] [µM] | GI50 [3] [µM] | TGI [3] [µM] | GI50 [4] [µM] | TGI [4] [µM] | GI50 [5] [µM] | TGI [5] [µM] | GI50 [6] [µM] | TGI [6] [µM] | GI50 [7] [µM] | TGI [7] [µM] | GI50 [8] [µM] | TGI [8] [µM] | GI50 [9] [µM] | TGI [9] [µM] | GI50 [10] [µM] | TGI [10] [µM]
1 | Cc1nc2sc(C(=O)Nc3cccc(Br)c3C)c(N)c2cc1C(O)c1ccccc1 (stereo not given) | 0.0342 | 0.156 | 0.249 | 15.7 | 0.0345 | 6.04 | 0.0256 | 0.0733 | 0.0609 | 75.8 | 0.0422 | 5.16 | 0.0643 | 12.5 | 0.146 | 13 | 1.51 | 22 | 0.0286 | 2.55
2 | COc1cc2c(cc1OC)C(C(CCCCCC(CCC(C)C)C1NCCc3cc(OC)c(OC)cc31)CCC(C)C)NCC2 (stereo not given) | 0.217 | 0.436 | 2.1 | 3.72 | 1.42 | 3.43 | 1.79 | 3.27 | 1.58 | 2.99 | 1.19 | 2.55 | 1.59 | 3.22 | 1.34 | 2.79 | 1.85 | 3.28 | 1.72 | 3.24
3 | CC[C@@H](C)/C=C(C)/C=C/C(=O)c1c(O)c(-c2ccc(OC(=O)[C@@]34CC[C@@](C)(C(=O)O3)C4(C)C)cc2)cn(O)c1=O | 1.28 | 7.56 | 15.6 | > 50 | 3.33 | > 50 | 1.3 | 6.1 | 7.48 | > 50 | 0.839 | > 50 | 1.32 | 7.89 | 0.888 | 6.6 | 2.51 | > 50 | 1.73 | > 50
4 | CCc1nc(C)cn1C(=O)OCc1nc2nc(Cl)nc(N3CCOCC3)c2[nH]1 | 1.7 | 3.76 | 1.72 | 3.29 | 1.74 | 4.89 | 1.27 | 2.54 | 4.04 | 15.6 | 1.22 | 2.52 | 1.01 | 2.18 | 1.53 | 3.06 | 1.78 | 3.2 | 1.37 | 3.37
5 | Cn1ncc(C#N)c1-c1ccc2c(c1)CN([C@H](CN)Cc1cccc(F)c1)C2=O | 0.752 | > 100 | 16.6 | 44.8 | 0.322 | 11.4 | 0.193 | 8.74 | 0.255 | 13.2 | 21.3 | > 100 | 3.43 | 42.5 | 20.1 | > 100 | 3.72 | > 83.2 | 17.6 | 60.3
6 | O=C(Nc1ccncc1)C(=O)c1cn(S(=O)(=O)c2cccc(Cl)c2)c2ccccc12 | 20 | > 100 | 11 | > 100 | 77.1 | > 100 | 4.61 | 43.9 | 30.2 | > 100 | 10.9 | > 100 | 11.7 | > 100 | 8.36 | > 100 | 10.2 | 60.1 | 2.41 | 16.9
7 | Nc1ccccc1C#C/C=C\C#Cc1ccccc1C#CCO | 8.73 | 22 | 8.35 | 24.2 | 8.89 | 27.8 | 10.8 | 27.1 | 12.1 | 27 | 15.8 | > 50 | 6.69 | > 50 | 7.6 | 24.3 | 15.3 | > 50 | 11.8 | 28.2
